Data on 20 compounds can be found in patent US9227971B2, “Pyrazolo[1,5-a]pyrimidine compounds as mTOR inhibitors” (Merck Sharp & Dohme Corp., priority 2010, dated 2016).

Experiment [1] concerns phosphorylated AKT Ser473 (pAKT S473), mTORC2 activity, PC3 cells. As to the kind of experiment: mTOR target engagement assay, immunofluorescent cell-based, pAKT S473 readout (mTORC2 activity). Conditions: Homo sapiens. Summed up: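 After blocking, cells were stained overnight at 4 °C with anti-pAKT S473 antibody, then a fluorescent secondary; inhibition was read as reduced fluorescence intensity.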

In experiment [2] the test system is phosphorylated 4E-BP1 Thr37/46 (p4E-BP1 Thr37/46), mTORC1 activity, PC3 cells. Kind of experiment: mTOR target engagement assay, immunofluorescent cell-based, p4E-BP1 Thr37/46 readout (mTORC1 activity). Conditions: Homo sapiens, read-out: p4E-BP1 Thr37/46 IC50. Summed up: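 Read-out is fluorescence intensity of immunostained p4E-BP1 Thr37/46 in fixed PC3 cells, fitted to a logistic curve for IC50 with DMSO-only wells as top. Cells had been exposed to serial compound dilutions for ninety minutes at 37° C in 5% FBS medium with 0.25% DMSO.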

Where [3] appears, read: PC-3, PC3 cells, compound treatment ninety minutes at 37° C.

Where two headings read alike, the source gives them in different places.

Regarding `Nc1c(C2CC2)c([C@]2(O)C[C@H]3CC[C@@H](C2)N3C(=O)c2nnc[nH]2)nc2c(-c3ccc(-c4ccccc4)nc3)cnn12` [Compound 8.24, ((1R,3r,5S)-3-(7-amino-6-cyclopropyl-3-(6-phenylpyridin-3-yl)pyrazolo[1,5-a]pyrimidin-5-yl)-3-hydroxy-8-azabicyclo[3.2.1]octan-8-yl)(4H-1,2,4-triazol-3-yl)methanone], the IC50 fell in the range of 100 to 1000 nM in experiment [1] (PC-3, PC3 cells) and 1000 to 10000 nM in experiment [2] (PC-3, PC3 cells).
In the case of `CS(=O)(=O)c1c([C@H]2CC3CC[C@H](C2)N3C(=O)c2cn[nH]n2)nc2c(-c3cnc(-c4ccccc4)cn3)cnn2c1N` [Compound 3.175], the IC50 lay in the range of 1000 to 10000 nM in experiment [1] (PC-3, Table 3-1, PC3 cells) and 1000 to 10000 nM in experiment [2] (PC-3, Table 3-1, PC3 cells).
With `CS(=O)(=O)c1c([C@@H]2C[C@H]3CC[C@@H](C2)N3C(N)=O)nc2c(-c3ccc(-c4ccccc4F)nc3)cnn2c1N` [Compound 3.131, (1R,3s,5S)-3-(7-amino-3-(6-(2-fluorophenyl)pyridin-3-yl)-6-(methylsulfonyl)pyrazolo[1,5-a]pyrimidin-5-yl)-8-azabicyclo[3.2.1]octane-8-carboxamide], the IC50 in experiment [1] (PC-3, Table 3-1, PC3 cells) lay in the range of 1 to 100 nM; in experiment [2] (PC-3, Table 3-1, PC3 cells) it was 1 to 100 nM.
As to `CC(=O)c1c([C@@H]2C[C@H]3CC[C@@H](C2)N3C(=O)CO)nc2c(-c3ccc(-n4ccc(C)n4)nc3)cnn2c1N` [Compound 1.1.133, 1-((1R,3s,5S)-3-(6-acetyl-7-amino-3-(6-(3-methyl-1H-pyrazol-1-yl)pyridin-3-yl)pyrazolo[1,5-a]pyrimidin-5-yl)-8-azabicyclo[3.2.1]octan-8-yl)-2-hydroxyethanone], the IC50 in experiment [1] (setting [3]) lay in the range of 100 to 1000 nM; in experiment [2] (setting [3]), 1000 to 10000 nM.
In the case of `CC(=O)c1c([C@@H]2C[C@H]3CC[C@@H](C2)N3S(=O)(=O)O)nc2c(-c3ccc(-c4ccccc4)nc3)cnn2c1N` [Compound 1.1.49, (1R,3s,5S)-3-(6-acetyl-7-amino-3-(6-phenylpyridin-3-yl)pyrazolo[1,5-a]pyrimidin-5-yl)-8-azabicyclo[3.2.1]octane-8-sulfonic acid], the IC50 in experiment [1] (setting [3]) is 1000 to 10000 nM; in experiment [2] (setting [3]), greater than 10000 nM.
As to `CNC(=O)Nc1ccc(-c2cnn3c(N)cc([C@@H]4C[C@H]5CC[C@@H](C4)N5C(=O)c4nnc[nH]4)nc23)cc1` [Compound 8.80, 1-(4-(5-((1R,3s,5S)-8-(4H-1,2,4-triazole-3-carbonyl)-8-azabicyclo[3.2.1]octan-3-yl)-7-aminopyrazolo[1,5-a]pyrimidin-3-yl)phenyl)-3-methylurea], the IC50 in experiment [1] (PC-3, PC3 cells) was greater than 10000 nM; in experiment [2] (PC-3, PC3 cells) it was greater than 10000 nM.
Turning to `CC(=O)c1c([C@@H]2C[C@H]3CC[C@@H](C2)N3C(=O)c2nnc[nH]2)nc2c(-c3ccc([C@H](O)C(F)(F)F)nc3)cnn2c1N` [Compound 7.74, 1-(5-((1R,3s,5S)-8-(4H-1,2,4-triazole-3-carbonyl)-8-azabicyclo[3.2.1]octan-3-yl)-7-amino-3-(6-((S)-2,2,2-trifluoro-1-hydroxyethyl)pyridin-3-yl)pyrazolo[1,5-a]pyrimidin-6-yl)ethanone], the IC50 fell in the range of 100 to 1000 nM in experiment [1] (PC-3, PC3 cells) and 100 to 1000 nM in experiment [2] (PC-3, PC3 cells).
For the compound `Cn1ccc(-c2ccc(-c3cnn4c(N)c(S(C)(=O)=O)c([C@@H]5C[C@H]6CC[C@@H](C5)N6C(=O)c5nnc[nH]5)nc34)cn2)n1` [Compound 3.40, ((1R,3s,5S)-3-(7-amino-3-(6-(1-methyl-1H-pyrazol-3-yl)pyridin-3-yl)-6-(methylsulfonyl)pyrazolo[1,5-a]pyrimidin-5-yl)-8-azabicyclo[3.2.1]octan-8-yl)(4H-1,2,4-triazol-3-yl)methanone], the IC50 in experiment [1] (PC-3, Table 3-1, PC3 cells) lay within 1 to 100 nM; in experiment [2] (PC-3, Table 3-1, PC3 cells), 1 to 100 nM.
In the case of `Nc1cc([C@@H]2C[C@H]3CC[C@@H](C2)N3C(=O)c2ncn[nH]2)nc2c(-c3ccc(CO)nc3)cnn12` [Compound 7.97, ((1R,3s,5S)-3-(7-amino-3-(6-(hydroxymethyl)pyridin-3-yl)pyrazolo[1,5-a]pyrimidin-5-yl)-8-azabicyclo[3.2.1]octan-8-yl)(1H-1,2,4-triazol-5-yl)methanone], the IC50 in experiment [1] (PC-3, PC3 cells) was greater than 10000 nM; in experiment [2] (PC-3, PC3 cells), 1000 to 10000 nM.
Turning to `COCc1cc(-c2ccc(-c3cnn4c(N)c(C(C)=O)c([C@@H]5C[C@H]6CC[C@@H](C5)N6C(=O)c5nnc[nH]5)nc34)cn2)ccc1OC` [Compound 1.1.45, 1-(5-((1R,3s,5S)-8-(4H-1,2,4-triazole-3-carbonyl)-8-azabicyclo[3.2.1]octan-3-yl)-7-amino-3-(6-(4-methoxy-3-(methoxymethyl)phenyl)pyridin-3-yl)pyrazolo[1,5-a]pyrimidin-6-yl)ethanone], the IC50 in experiment [1] (setting [3]) and in experiment [2] (setting [3]) was 1 to 100 nM throughout.
For `CS(=O)(=O)c1c([C@@H]2C[C@H]3CC[C@@H](C2)N3C(=O)c2cccc(=O)[nH]2)nc2c(-c3ccc(-c4ccccc4)nc3)cnn2c1N` [Compound 3.140, 6-((1R,3s,5S)-3-(7-amino-6-(methylsulfonyl)-3-(6-phenylpyridin-3-yl)pyrazolo[1,5-a]pyrimidin-5-yl)-8-azabicyclo[3.2.1]octane-8-carbonyl)pyridin-2(1H)-one], the IC50 in experiment [1] (PC-3, Table 3-1, PC3 cells) fell in the range of 1 to 100 nM; in experiment [2] (PC-3, Table 3-1, PC3 cells), 100 to 1000 nM.
Turning to `COCCOc1nnc(C(=O)N2C3CCC2CC(c2nc4c(-c5ccc(-c6ccccc6)nc5)cnn4c(N)c2C2CC2)C3)[nH]1` [Compound 8.100, ((1R,3s,5S)-3-(7-amino-6-cyclopropyl-3-(6-phenylpyridin-3-yl)pyrazolo[1,5-a]pyrimidin-5-yl)-8-azabicyclo[3.2.1]octan-8-yl)(5-(2-methoxyethoxy)-4H-1,2,4-triazol-3-yl)methanone], the IC50 was 100 to 1000 nM in experiment [1] (PC-3, PC3 cells) and 100 to 1000 nM in experiment [2] (PC-3, PC3 cells).
With `CS(=O)(=O)c1c([C@@H]2C[C@H]3CC[C@@H](C2)N3C(=O)c2nnc[nH]2)nc2c(-c3ccc(-c4ccc(OC5CC5)cc4)nc3)cnn2c1N` [Compound 3.61, ((1R,3s,5S)-3-(7-amino-3-(6-(4-cyclopropoxyphenyl)pyridin-3-yl)-6-(methylsulfonyl)pyrazolo[1,5-a]pyrimidin-5-yl)-8-azabicyclo[3.2.1]octan-8-yl)(4H-1,2,4-triazol-3-yl)methanone], the IC50 in experiment [1] (PC-3, Table 3-1, PC3 cells) lay in the range of 100 to 1000 nM; in experiment [2] (PC-3, Table 3-1, PC3 cells) it was 100 to 1000 nM.
`CN1CCN(c2nnc(C(=O)N3C4CCC3CC(c3nc5c(-c6ccc(-c7ccccc7)nc6)cnn5c(N)c3C3CC3)C4)[nH]2)CC1` [Compound 8.102, ((1R,3s,5S)-3-(7-amino-6-cyclopropyl-3-(6-phenylpyridin-3-yl)pyrazolo[1,5-a]pyrimidin-5-yl)-8-azabicyclo[3.2.1]octan-8-yl)(5-(4-methylpiperazin-1-yl)-4H-1,2,4-triazol-3-yl)methanone]: the IC50 was in the range of 1000 to 10000 nM in experiment [1] (PC-3, PC3 cells) and 1000 to 10000 nM in experiment [2] (PC-3, PC3 cells).
In the case of `CC(=O)c1c([C@@H]2C[C@H]3CC[C@@H](C2)N3C(=O)c2n[nH]c(N(C)C)n2)nc2c(-c3ccc(-c4ccccc4)nc3)cnn2c1N` [Compound 1.1.139, 1-(7-amino-5-((1R,3s,5S)-8-(5-(dimethylamino)-1H-1,2,4-triazole-3-carbonyl)-8-azabicyclo[3.2.1]octan-3-yl)-3-(6-phenylpyridin-3-yl)pyrazolo[1,5-a]pyrimidin-6-yl)ethanone], the IC50 in experiment [1] (setting [3]) and in experiment [2] (setting [3]) was 1000 to 10000 nM in each case.
Consider `CC(=O)c1c([C@@H]2C[C@H]3CC[C@@H](C2)N3C(=O)c2nnc[nH]2)nc2c(-c3ccc(-c4nc[nH]n4)nc3)cnn2c1N` [Compound 1.1.91, 1-(3-(6-(1H-1,2,4-triazol-3-yl)pyridin-3-yl)-5-((1R,3s,5S)-8-(4H-1,2,4-triazole-3-carbonyl)-8-azabicyclo[3.2.1]octan-3-yl)-7-aminopyrazolo[1,5-a]pyrimidin-6-yl)ethanone], for which the IC50 in experiment [1] (setting [3]) and in experiment [2] (setting [3]) was 1 to 100 nM throughout.
Regarding `CC(=O)c1c([C@@H]2C[C@H]3CC[C@@H](C2)N3C(=O)c2cc[nH]n2)nc2c(-c3ccc(C(C)(C)O)nc3)cnn2c1N` [Compound 7.11, 1-(5-((1R,3s,5S)-8-(1H-pyrazole-3-carbonyl)-8-azabicyclo[3.2.1]octan-3-yl)-7-amino-3-(6-(2-hydroxypropan-2-yl)pyridin-3-yl)pyrazolo[1,5-a]pyrimidin-6-yl)ethanone], the IC50 fell in the range of 1 to 100 nM in experiment [1] (setting [3]) and 100 to 1000 nM in experiment [2] (setting [3]).
On the same counts, the results for `Nc1c(C2CC2)c([C@@H]2C[C@H]3CC[C@@H](C2)N3C(=O)c2nnc[nH]2)nc2c(-c3ccc(-c4cccc(F)c4)nc3)cnn12` [Compound 4.21, ((1R,3s,5S)-3-(7-amino-6-cyclopropyl-3-(6-(3-fluorophenyl)pyridin-3-yl)pyrazolo[1,5-a]pyrimidin-5-yl)-8-azabicyclo[3.2.1]octan-8-yl)(4H-1,2,4-triazol-3-yl)methanone] are 1 to 100 nM and 1 to 100 nM.
For `CC(=O)c1c([C@@H]2C[C@H]3CC[C@@H](C2)N3C(=O)c2nnc[nH]2)nc2c(-c3ccc(-c4ncn(C)n4)nc3)cnn2c1N` [Compound 1.1.88, 1-(5-((1R,3s,5S)-8-(4H-1,2,4-triazole-3-carbonyl)-8-azabicyclo[3.2.1]octan-3-yl)-7-amino-3-(6-(1-methyl-1H-1,2,4-triazol-3-yl)pyridin-3-yl)pyrazolo[1,5-a]pyrimidin-6-yl)ethanone] the same measures were 1 to 100 nM and 1 to 100 nM.
As for `Nc1c(C2CC2)c(C2CC3CCC(C2)N3C(=O)c2nnc(N3CCOCC3)[nH]2)nc2c(-c3ccc(-c4ccccc4)nc3)cnn12` [Compound 8.105, ((1R,3s,5S)-3-(7-amino-6-cyclopropyl-3-(6-phenylpyridin-3-yl)pyrazolo[1,5-a]pyrimidin-5-yl)-8-azabicyclo[3.2.1]octan-8-yl)(5-morpholino-4H-1,2,4-triazol-3-yl)methanone], the IC50 in experiment [1] (PC-3, PC3 cells) fell in the range of 1000 to 10000 nM; in experiment [2] (PC-3, PC3 cells), 1000 to 10000 nM.
